Read-outs that look alike come from different tables or passages of the source.
Legend:
in vivo = conditions: for LD50: read-out: Toxicity: LD50; for mortality: read-out: Toxicity (Mortality)
Excerpt: *LD50 or percentage of mortality which is given between brackets

anaesthetized dog = assay: Antiangorous activity on anaesthetized dog: consumption of oxygen in the left ventricule and cardiac effort (KATZ's index); assay type: in vivo; conditions: for inhibition in vivo at 2.5 mg/kg / inhibition in vivo at 2.3 mg/kg / inhibition in vivo at 1.25 mg/kg / inhibition in vivo at 0.14 mg/kg / inhibition in vivo at 0.6 mg/kg / inhibition in vivo at […] / inhibition in vivo at 0.625 mg/kg: Canis lupus familiaris, iv; for inhibition in vivo at […]: 0.15 mg/kg i.v. slow perfusion
Experimental: The antiangorous activity was tested on an anaesthetized dog (sodium pentobarbital 30 mg/kg/i.v.).
The consumption of oxygen in the left ventricule was estimated by the product of the coronary venous flow and the coronary arteriovenous difference in oxygen (% volume).
The coronary venous flow was measured at the coronary venous sinus by means of a modified Morawitz cannula, introduced under radioscopic control.
The cardiac effort was estimated according to KATZ's index, by the product of the average arterial pressure and the cardiac frequency.
The cardiac frequency was estimated from the electrocardiogram recorded with D2 derivation.
It should be noted that the compounds tested were injected intravenously with slow perfusion.

[1] = 2.5 mg/kg i.v. slow perfusion, read-out: Diminution in consumption of O2
[2] = 2.5 mg/kg i.v. slow perfusion, read-out: Diminution in the cardiac effort (IK)
[3] = 2.3 mg/kg i.v. slow perfusion, read-out: Diminution in consumption of O2
[4] = 2.3 mg/kg i.v. slow perfusion, read-out: Diminution in the cardiac effort (IK)
[5] = 1.25 mg/kg i.v. slow perfusion, read-out: Diminution in consumption of O2
[6] = 1.25 mg/kg i.v. slow perfusion, read-out: Diminution in the cardiac effort (IK)
[7] = read-out: Diminution in consumption of O2
[8] = read-out: Diminution in the cardiac effort (IK)
[9] = 0.625 mg/kg i.v. slow perfusion

SMILES | LD50 (in vivo; iv) [mg/kg] | Diminution in consumption of O2: in time (anaesthetized dog; 2.5 mg/kg i.v. slow perfusion) [min] | Diminution in the cardiac effort (IK): in time (anaesthetized dog; 2.5 mg/kg i.v. slow perfusion) [min] | inhibition in vivo at 2.5 mg/kg (anaesthetized dog; [1]) [%] | inhibition in vivo at 2.5 mg/kg (anaesthetized dog; [2]) [%] | also measured
CNC(=O)Nc1ccc(OCC(O)CN2CCN(C(=O)/C=C/c3cc(OC)c(OC)c(OC)c3)CC2)c2c1CCCC2 (stereo not drawn) [771 157] | 210 | 30 | 30 | 53 | 46 | 
COc1cccc(SCC(O)CN2CCN(C(=O)/C=C/c3cc(OC)c(OC)c(OC)c3)CC2)c1 (stereo not drawn) [770 112] | 224 |  |  |  |  | Diminution in consumption of O2: in time (anaesthetized dog; 2.3 mg/kg i.v. slow perfusion): 23 min; Diminution in the cardiac effort (IK): in time (anaesthetized dog; 2.3 mg/kg i.v. slow perfusion): 15 min; inhibition in vivo at 2.3 mg/kg (anaesthetized dog; [3]): 34%; inhibition in vivo at 2.3 mg/kg (anaesthetized dog; [4]): 7%
COc1cc(/C=C/C(=O)N2CCN(CC(O)COc3ccc(C#N)c4c3OCCO4)CC2)cc(OC)c1OC (stereo not drawn) [770 585] |  | 30 | 30 | 75 | 41 | mortality (in vivo; po, p.o.: 2000 mg/kg): 0%
COc1cc(/C=C/C(=O)N2CCCN(CC(O)COc3ccc(C(C)=O)c4c3OCCO4)CC2)cc(OC)c1OC (stereo not drawn) [760 622] |  |  |  |  |  | mortality (in vivo; iv, 400 mg/kg i.v.): 40%; Diminution in consumption of O2: in time (anaesthetized dog; 1.25 mg/kg i.v. slow perfusion): 30 min; Diminution in the cardiac effort (IK): in time (anaesthetized dog; 1.25 mg/kg i.v. slow perfusion): 15 min; inhibition in vivo at 1.25 mg/kg (anaesthetized dog; [5]): 20%; inhibition in vivo at 1.25 mg/kg (anaesthetized dog; [6]): 17%
COc1cc(/C=C/C(=O)N2CCN(CC(O)COc3cccc(C#N)c3)CC2)cc(OC)c1OC (stereo not drawn) [760 784] | 372 |  |  |  |  | Diminution in consumption of O2: in time (anaesthetized dog; 2.3 mg/kg i.v. slow perfusion): 30 min; Diminution in the cardiac effort (IK): in time (anaesthetized dog; 2.3 mg/kg i.v. slow perfusion): 30 min; inhibition in vivo at 2.3 mg/kg (anaesthetized dog; [3]): 44%; inhibition in vivo at 2.3 mg/kg (anaesthetized dog; [4]): 12%
COc1cc(/C=C/C(=O)N2CCN(CC(O)COc3ccc(NC(C)=O)c4c3CCCC4)CC2)cc(OC)c1OC (stereo not drawn) [780 044] |  | 30 | 15 | 49 | 36 | mortality (in vivo; iv, 400 mg/kg i.v.): 10%
CCOC(=O)Cc1ccc(OCC(O)CN2CCN(C(=O)/C=C/c3cc(OC)c(OC)c(OC)c3)CC2)c2c1OCCO2 (stereo not drawn) [770 312] | 259 |  |  |  |  | Diminution in consumption of O2: in time (anaesthetized dog; 0.14 mg/kg i.v. slow perfusion): 30 min; inhibition in vivo at 0.14 mg/kg (anaesthetized dog; 0.14 mg/kg i.v. slow perfusion, read-out: Diminution in consumption of O2): 30%; inhibition in vivo at 0.14 mg/kg (anaesthetized dog; 0.14 mg/kg i.v. slow perfusion, read-out: Diminution in the cardiac effort (IK)): 9%
COc1cc(/C=C/C(=O)N2CCN(CC(O)COc3cc(OC)c(OC)c(OC)c3)CC2)cc(OC)c1OC (stereo not drawn) [760 506] | 182 |  |  |  |  | Diminution in consumption of O2: in time (anaesthetized dog; 2.3 mg/kg i.v. slow perfusion): 60 min; Diminution in the cardiac effort (IK): in time (anaesthetized dog; 2.3 mg/kg i.v. slow perfusion): 60 min; inhibition in vivo at 2.3 mg/kg (anaesthetized dog; [3]): 67%; inhibition in vivo at 2.3 mg/kg (anaesthetized dog; [4]): 26%
COc1cc(/C=C/C(=O)N2CCN(CC(O)COc3cccc4c3OCO4)CC2)cc(OC)c1OC (stereo not drawn) [780 138] | 150 | 45 | 30 | 46 | 19 | 
CNC(=O)Nc1ccc(OCC(O)CN2CCN(C(=O)/C=C/c3cc(OC)c(OC)c(OC)c3)CC2)c2c1OCO2 (stereo not drawn) [780 409] |  | 90 | 90 | 54 | 43 | mortality (in vivo; iv, 400 mg/kg i.v.): 20%
COc1cc(OC)cc(OCC(O)CN2CCN(C(=O)/C=C/c3cc(OC)c(OC)c(OC)c3)CC2)c1 (stereo not drawn) [760 620] | 285 | 30 | 30 | 22 | 10 | 
CCOC(=O)c1ccc(OCC(O)CN2CCN(C(=O)/C=C/c3cc(OC)c(OC)c(OC)c3)CC2)c2c1OCCO2 (stereo not drawn) [760 700] |  |  |  |  |  | mortality (in vivo; iv, 367 mg/kg i.v.): 0%; Diminution in consumption of O2: in time (anaesthetized dog; 0.6 mg/kg i.v. slow perfusion): 45 min; Diminution in the cardiac effort (IK): in time (anaesthetized dog; 0.6 mg/kg i.v. slow perfusion): 60 min; inhibition in vivo at 0.6 mg/kg (anaesthetized dog; 0.6 mg/kg i.v. slow perfusion, read-out: Diminution in consumption of O2): 59%; inhibition in vivo at 0.6 mg/kg (anaesthetized dog; 0.6 mg/kg i.v. slow perfusion, read-out: Diminution in the cardiac effort (IK)): 47%
CNC(=O)N(C)c1ccc(OCC(O)CN2CCN(C(=O)/C=C/c3cc(OC)c(OC)c(OC)c3)CC2)c2c1OCCO2 (stereo not drawn) [771 238] |  |  |  |  |  | mortality (in vivo; iv, 400 mg/kg i.v.): 0%; Diminution in consumption of O2: in time (anaesthetized dog; 1.25 mg/kg i.v. slow perfusion): 30 min; Diminution in the cardiac effort (IK): in time (anaesthetized dog; 1.25 mg/kg i.v. slow perfusion): 30 min; inhibition in vivo at 1.25 mg/kg (anaesthetized dog; [5]): 40%; inhibition in vivo at 1.25 mg/kg (anaesthetized dog; [6]): 38%
COc1cc(/C=C/C(=O)N2CCCN(CC(O)COc3ccc(C(C)=O)cc3)CC2)cc(OC)c1OC (stereo not drawn) [780 415] | 305 | 30 | 30 | 29 | 10 | 
CCCC(=O)c1ccc(OCC(O)CN2CCN(C(=O)/C=C/c3cc(OC)c(OC)c(OC)c3)CC2)cc1 (stereo not drawn) [780 302] |  | 30 | 30 | 46 | 14 | 
COc1cc(/C=C/C(=O)N2CCN(CC(O)COc3ccc(C(C)=O)c4c3OCCCO4)CC2)cc(OC)c1OC (stereo not drawn) [780 241] |  |  |  |  |  | inhibition in vivo at […] (anaesthetized dog; [7]): 30%; inhibition in vivo at […] (anaesthetized dog; [8]): 13%
CNC(=O)Nc1ccc(OCC(O)CN2CCN(C(=O)/C=C/c3cc(OC)c(OC)c(OC)c3)CC2)c2ccccc12 (stereo not drawn) [771 031] |  |  |  |  |  | inhibition in vivo at […] (anaesthetized dog; [7]): 20%; inhibition in vivo at […] (anaesthetized dog; [8]): 25%
COc1cc(/C=C/C(=O)N2CCN(CC(O)CSc3ccc(C(C)=O)c4c3OCCO4)CC2)cc(OC)c1OC (stereo not drawn) [780 384] |  |  |  |  |  | inhibition in vivo at […] (anaesthetized dog; [7]): 43%; inhibition in vivo at […] (anaesthetized dog; [8]): 25%
COc1cc(/C=C/C(=O)N2CCN(CC(O)COc3ccc(NC(C)=O)c4ccccc34)CC2)cc(OC)c1OC (stereo not drawn) [771 036] |  |  | 15 | 15 | 25 | 
COc1cc(/C=C/C(=O)N2CCN(CC(O)COc3ccc(CC#N)c4c3OCCO4)CC2)cc(OC)c1OC (stereo not drawn) [770 188] | 219 |  |  |  |  | 
CNC(=O)Nc1ccc(OCC(O)CN2CCN(C(=O)/C=C/c3cc(OC)c(OC)c(OC)c3)CC2)c(Cl)c1 (stereo not drawn) [780 189] |  | 30 | 45 | 63 | 30 | 
COc1cc(/C=C/C(=O)N2CCN(CC(O)COc3ccc(C(=O)OC(C)(C)C)c4c3OCCO4)CC2)cc(OC)c1OC (stereo not drawn) [780 369] |  |  |  |  |  | Diminution in consumption of O2: in time (anaesthetized dog; [9]): 15 min; Diminution in the cardiac effort (IK): in time (anaesthetized dog; [9]): 15 min; inhibition in vivo at 0.625 mg/kg (anaesthetized dog; 0.625 mg/kg i.v. slow perfusion, read-out: Diminution in consumption of O2): 37%; inhibition in vivo at 0.625 mg/kg (anaesthetized dog; 0.625 mg/kg i.v. slow perfusion, read-out: Diminution in the cardiac effort (IK)): 4%
COc1cc(/C=C/C(=O)N2CCN(CC(O)COc3ccc(C(C)=O)c4ccccc34)CC2)cc(OC)c1OC (stereo not drawn) [771 315] |  |  |  |  |  | Diminution in the cardiac effort (IK): in time (anaesthetized dog; 1.25 mg/kg i.v. slow perfusion): 15 min; inhibition in vivo at 1.25 mg/kg (anaesthetized dog; [5]): 11%; inhibition in vivo at 1.25 mg/kg (anaesthetized dog; [6]): 29%
COc1cc(/C=C/C(=O)N2CCN(CC(O)COc3ccc(C(C)=O)cc3Cl)CC2)cc(OC)c1OC (stereo not drawn) [780 401] |  | 30 |  | 64 | 6 | 
COc1cc(/C=C/C(=O)N2CCN(CC(O)COc3ccc(C(C)=O)cc3F)CC2)cc(OC)c1OC (stereo not drawn) [780 353] |  | 15 | 15 | 46 | 16 | 
CCOC(=O)c1cc(OC)c(OCC(O)CN2CCN(C(=O)/C=C/c3cc(OC)c(OC)c(OC)c3)CC2)c(OC)c1 (stereo not drawn) [780 361] |  | 30 | 45 | 68 | 38 | 

From patent publication US4178442A, “Novel cinnamoyles piperazines and homopiperazines, the method of preparing them and their application in therapeutics” (Delalande S. A., priority 1977, dated 1979)
